The record followed here is patent US20020058699A1, “Methods for treating seizure disorders by inhibiting MAPK pathway activation” (priority 2000, published 2002).

Data set [1] is described as follows: Behavioral observation of animals treated with SL327. It counts as in vivo, rat.
The test system of data set [2] is ERK MAPK (p42 and p44). Description: Hippocampal ERK activation by Western blotting (phospho-ERK and total ERK). Type of data set: in vivo, rat. The settings on record: for basal ERK phosphorylation: CTL+SL327 400 mg/kg; for kainate-induced ERK phosphorylation: KA+SL327 400 mg/kg; for basal ERK activation (phospho-ERK): control+SL327 100 mg/kg; for kainate-induced ERK activation (phospho-ERK): kainate+SL327 100 mg/kg; for ERK activation (phospho-ERK): kainate+vehicle (PEG400/ETOH). As to the method: Hippocampal ERK activation was quantified by Western blotting using the method described by Atkins el al.[Atkins et al., Nat. Neurosci. 1:602-609 (1998)] with minor modifications. In brief, animals were sacrificed at 30 minutes and after 1 hr of class 5 seizures (150 min post injection) and the hippocampus was dissected. CA1, CA3 and dentate subregions were dissected in ice-cold saline and homogenates prepared by extracting with denaturing detergent. Protein concentrations were deteremined by Bradford Assay. Homogenates were subjected to Western blotting (immunoblots) prepared by routine methods (for example, see Harlow and Lane, in ANTIBODIES: A LABORATORY MANUAL, Cold Spring Harbor Laboratory Press (1988)). Blotted protein was detected using antibodies to total ERK (1:10,000) and dually phosphorylated, activated ERK MAPK (p42 and p44)(1:1000)(Cell Signaling). Enzyme activity associated with a secondary antibody was detected by incubation with Enhanced Chemiluminescent Reagent (BioRad Laboratories, Hercules Calif.) as substrate. Immunoreactivity of the total ERK and dually phosphorylated activated ERK MAPK in the blot was quantified using densitometry (Scion) for representative blots of p42 and analyzed by Student's t-test.
(§1) Adult rats were injected IP with SL327 100 mg/kg or vehicle alone (PEG400/ETOH) were administered 30 minutes later with kainate or vehicle (saline). Animals were sacrificed at following 1 hour of kainate-induced seizures or three hours after kainate injection. Hippocampal regions CA1, CA3, and dentate were removed and processed for Western blotting, as described in Example 1.
ERK phosphorylation in brain tissue was evaluated in kainate challenged animals pretreated with 400 mg/kg SL327. […] CA1, CA3, and dentate were dissected and processed for Western blotting as described in Example 1. […] Tukey's Multiple Comparison Test: ***p<0.001.

Data set [3] relates to kainate-induced limbic motor seizures. Description: Kainate-induced seizures scored by Racine Classification Scale. Type of data set: in vivo, rat. The method, then:
Male Sprague-Dawley rats (125-200 gm) were administered kainate at a dose of 15 mg/kg IP while the control animals (CTL) received vehicle IP (saline). Seizures were scored independently by two investigators in accordance with the Racine Classification Scale (0=no seizures, 1=mouth/face movements; 2=head nodding; 3=forelimb clonus; 4=rearing; and 5=rearing and falling). [Ben-Ari et al., Devl. Brain. Res. 14:284-288 (1985)]. Seizure score is shown plotted against time in the kainate-treated and control (vehicle-injected) animals.
as §1
Animals were treated as described in Example 2 except that SL327 was administered at 400 mg/kg.

The subject of data set [4] is Kv4.2. Description: Phospho-Kv4.2 Western blotting of hippocampal membrane fractions from kainate and control animals. It counts as in vivo, rat. The method, then:
Western blotting using the phospho-Kv4.2 antibody to the ERK sites was performed on membrane fractions from kainate and control animals pretreated with SL327 as described in Example 1. See also Adams et al., J. Neurochem. 75:2277-2287 (2000), and Anderson et al., J. Biol. Chem. 275:5337-5346 (2000). Animals were sacrificed 30 minutes after kainate (before overt seizures) and 1 hour after continuous motor seizures.

The subject of data set [5] is CREB. Briefly: Phospho-CREB Western blots of hippocampus. Type of data set: in vivo, rat. The method, then:
Western blots prepared using CA1, CA3 and dentate regions of the hippocampus from rats following kainate-induced status epilepticus (KA, n=3) or vehicle alone (CTL, n=3) were performed using phospho-CREB antibodies. […] There is a small but significant decrease in CREB phosphorylation in CA3 (CA3 80.4±9.0%; *p<0.05, ***p<0.001).
Hippocampal region CA1 was removed 2 hours after rats were treated IP with the MEK inhibitor, SL327 (100 mg/kg) or vehicle alone. Western blots were developed using the phosho-CREB antibody.
In general terms: In western blotting, separated proteins are transferred to a membrane and probed.

Data set [6] deals with transient K+ currents composed of Kv4.2 subunits. Briefly: Transient K+ currents recorded in distal dendrites of hippocampal area CA1 slices. Type of data set: cell-based. As to the method: MEK inhibitor PD098059 ([…]) or vehicle was applied to the hippocampal CA1 slices at least 20 minutes before recording conductance.
The functional consequence of MAPK inhibition on transient K^+currents composed of Kv4.2 subunits as recorded in distal dendrites of hippocampal area CA1 was evaluated. The MEK inhibitor PD098059 ([…]) or vehicle was applied to the hippocampal CA1 slices at least 20 min prior to recording conductance.

Data set [7] concerns phospho-Kv4.2. Description: Phospho-Kv4.2 immunohistochemistry of hippocampus. Type of data set: in vivo, rat. The settings on record: after kainate-induced seizures; stratum oriens and radiatum of CA1 and CA3, dentate hilus. As to the method:
[insert*: see symbol after “antibody”] Immunohistochemistry using phospho-Kv4.2 antibody (phospho-Kv4.2) to the ERK sites was performed as described in Example 1 for the same animal groups. […] These areas include stratum oriens and stratum radiatum of areas CA1 and CA3 and the dentate hilus.

Data set [8] has as its system phospho-ERK. Description: Phospho-ERK immunohistochemistry of hippocampus. It counts as in vivo, rat. The conditions noted are these: 150 min after kainate; stratum oriens of CA1, stratum radiatum of CA1 and CA3, dentate hilus, mossy fiber inputs to CA3. As to the method: Immunohistochemical analysis of stained neural tissue was performed as described by Varga et al., Learn Mem 7;321-322 (2000), with the following modifications. In this case, kainate and control animals were sacrificed at 150 minutes following injection, while in stage 5 seizures for about 1 hour. After tissue fixation, 20-micron sections were thaw-mounted and incubated in 0.3% H2O2 in methanol for 30 minutes at RT, washed in PBST (PBS containing 0.2% Triton X-100), and blocked in PBST containing 5% normal goat serum (NGS). Sections were then incubated with the phospho-ERK antibody (1:100) overnight, washed with PBST, and incubated with a 1:200 dilution of goat anti-rabbit biotinylated secondary antibody for 30 minutes at RT. After washing and incubation with a 1:50 dilution of ABC reagent (Pierce) for 30 minutes at RT, sections were again washed in PBST and then stained using metal enhanced DAB. Sections were then rinsed, cleared, and coverslipped using a xylene based medium.

Data set [9] relates to Kv4.2. The settings on record: U0126 20 μM, rat hippocampal slices, CA1. As to the method:
Rat hippocampal slices were bathed in vehicle with MEK inhibitor U0126 (20 μM) or vehicle alone (CTL).

[10] abbreviates: SL327 100 mg/kg IP 30 min before kainate.
Setting [11] is: vehicle-treated kainate group (no SL327).

Structures are written as SMILES. “Also recorded” adds a separate entry of the source.

With `N#CC(=C(N)Sc1ccc(N)cc1)c1ccccc1C(F)(F)F` [SL327, Z- and E-α-[amino[(4-aminophenyl)thio]methylene]-2-(trifluoromethyl)benzeneacetonitrile], the sedation result in data set [1] (SL327 400 mg/kg, all groups) was “modest degree of apparent sedation”. The locomotor activity entry in data set [1] (SL327 400 mg/kg, some animals in kainate and control groups) is “increase in locomotor activity”. In data set [1] (control animals, SL327 100 mg/kg), the “lethargy or other behavioral changes” value is “No obvious lethargy or other behavioral changes”. In data set [2] (CA1), the “basal ERK phosphorylation” value was 8.4±7.2 % of CTL+Vehicle, the “kainate-induced ERK phosphorylation” value was 31.5±10.5 % of CTL+Vehicle, the “basal ERK activation (phospho-ERK)” value is on record as 46.05 (±15.89) % control and the “kainate-induced ERK activation (phospho-ERK)” value (shortened to “kainate-induced ERK activation”) is reported as 220.70 (±35.80) % control. In [2] (CA3), the “basal ERK phosphorylation” value is recorded as 2.9±0.5 % of CTL+Vehicle, the “kainate-induced ERK phosphorylation” value was 26.2±10.8 % of CTL+Vehicle, the “basal ERK activation (phospho-ERK)” value was 37.51 (±9.59) % control and the “kainate-induced ERK activation” value is listed as 143.60 (±22.26) % control. In data set [2] (dentate), the “basal ERK phosphorylation” value is given as 3.1±0.8 % of CTL+Vehicle, the “kainate-induced ERK phosphorylation” value is 24.7±9.9 % of CTL+Vehicle, the “basal ERK activation (phospho-ERK)” value was 32.16 (±11.46) % control and the “kainate-induced ERK activation” value is listed as 195.6 (±18.58) % control. For the same molecule, the “total ERK1/ERK2 MAPK protein” value in [2] (SL327 400 mg/kg pretreatment, total ERK antibody) was “no changes in total protein”. Further, in data set [3] (setting [10]), the “animals with class 5 seizures” value was 100% and the “block of kainate-induced seizures” value is given as “did not block kainate-induced seizures”. Moreover, the “block of kainate-induced limbic motor seizures” value in [3] (SL327 400 mg/kg IP 30 min before kainate 15 mg/kg) is “blocks limbic motor status epilepticus; also recorded: effectively blocked kainate-induced limbic motor seizures”. Moreover, the phospho-Kv4.2 in data set [4] (KA+SL327 400 mg/kg, CA1) is on record as 152.8±41.4 % of CTL+SL327. Moreover, the phospho-Kv4.2 in data set [4] (KA+SL327 400 mg/kg, CA3) is reported as 170.8±16.6 % of CTL+SL327. For the same molecule, the phospho-Kv4.2 in [4] (KA+SL327 400 mg/kg, dentate) was 66.6±10.36 % of CTL+SL327. For the same molecule, the “activated CREB (phospho-CREB)” value in [5] (CA1, 2 hours after SL327 100 mg/kg IP) is reported as “reduces the amount of activated CREB”. The “unspecified quantity, % of control” value in data set [6] (n=2, Control 85.55%) is reported as 61.83 % of control.

Consider `C=C(C)[C@H]1CN[C@H](C(=O)O)[C@H]1CC(=O)O` [kainate], for which the phospho-ERK2 immunoreactivity in data set [2] (CA1, 30 min after kainate 15 mg/kg IP, prior to behavioral seizures) is given as 218.9 (±40.66) % CTL; in data set [2] (CA1, 150 min after kainate, class 5 seizures), 165.5±16.5 % of control; in [2] (CA3, 30 min after kainate 15 mg/kg IP) it was 206.80 (±31.61) % CTL; in data set [2] (CA3, 150 min after kainate, class 5 seizures), 153.1±10.3 % of control; in [2] (dentate, 30 min after kainate 15 mg/kg IP) it was 305.50 (±58.26) % CTL; in data set [2] (dentate, 150 min after kainate, class 5 seizures), 224.8±34.1 % of control. The “total MAPK immunoreactivity” value in [2] (kainate versus control, total MAPK antibody) is “No difference”. For the same molecule, the “ERK activation (phospho-ERK)” value in data set [2] (CA1) is on record as 215.40 (±24.19) % control; in [2] (CA3), 196.60 (±6.69) % control; in data set [2] (dentate), 219.60 (±8.82) % control. In addition, the phospho-Kv4.2 staining entry in data set [7] was “increase in phospho-Kv4.2”. The “seizure class (Racine Classification Scale)” value in data set [3] (kainate 15 mg/kg IP, male Sprague-Dawley rats, within 90 min, persisted until 150 min) is on record as “all of the animals studied developed class 5 seizures”. Further, in data set [3] (setting [11]), the “animals progressed to Class 3 seizures” value is given as 1/9. Besides, in data set [3] (setting [11]), the “animals progressed to Class 5 seizures” value was 6/9. The “animals that developed limbic motor seizures” value in [3] (setting [11]) was found to be 78%. The “animals with no evidence of motor seizures” value in data set [3] (setting [11]) is given as 2/9. For the same molecule, the phospho-ERK staining result in [8] was “increased greatly”. The “ERK phosphorylation of Kv4.2” value came out at 48.80±6.95 % control in data set [4] (CA1, 30 min after kainate injection); 128.70±29.12 % control in data set [4] (CA3, 30 min after kainate injection); 109.10±11.09 % control in data set [4] (dentate, 30 min after kainate injection). Besides, the phospho-Kv4.2 in data set [4] (KA+Vehicle, CA1, after 1 hr limbic motor seizures) is reported as 535.5±84.1 % of CTL+Vehicle; in [4] (KA+Vehicle, CA3, after 1 hr limbic motor seizures) it was 442.0±57.0 % of CTL+Vehicle; in data set [4] (KA+Vehicle, dentate, after 1 hr limbic motor seizures), 1177.0±361.1 % of CTL+Vehicle. The CREB phosphorylation in [5] (CA1, kainate-induced status epilepticus) is on record as 162.9±29.4 % of control; in [5] (CA3, kainate-induced status epilepticus), 80.4±9.0%; in data set [5] (dentate, kainate-induced status epilepticus), 138.0±4.4 % of control.

For `COc1cccc(-c2cc(=O)c3ccccc3o2)c1N` [PD098059, 2-(2′-amino-3′-methoxyphenyl)-oxanaphthalen-4-one], in [6] (MEK inhibitor applied to hippocampal CA1 slices at least 20 min before recording), the “effect on conductance / voltage-dependence of K+ currents in dendrites” value was “hyperpolarizing shift; also recorded: Conductance with inhibitor was increased compared to controls at almost all voltages applied”. The “V½ of steady-state activation, after compound” value in data set [6] (as printed: after compound, PD098059 50 μM applied at least 20 min before recording, n=10) is −2 mV. In addition, the “V½ of steady-state activation, before compound” value in [6] (as printed: before compound, n=7) is recorded as −9 mV.

For `N#CC(=C(/N)Sc1ccccc1N)/C(C#N)=C(\N)Sc1ccccc1N` [U0126], in data set [9], the “detection by MAPK-Kv4.2 phospho-selective antibody (basal Kv4.2 phosphorylation)” value is listed as 61.14%±8.74 % of control.
